This passage reports GI50 and IC50 results from patent US20260138959A1, “QUINAZOLINE DERIVATIVE COMPOUND AND USE THEREOF” (VORONOI INC., priority 2021, published 2026).

pIC50: −log10 of the molar value. Where only a bound is given, the exact number is not on record here.

One experiment has as its system c-KIT V560G/D816V. The experiment can be described thus: Proliferation inhibitory activity on Ba/F3 cell (CellTiter-Glo, 72 hours), c-KIT V560G/D816V. Format: cell-based. The settings on record: Mus musculus, BaF3, c-KIT V560G/D816V cells, read-out: Cell (nM) c-KIT V560G/D816V (GI50 class). The procedure, abridged:
(§1)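 Ba/F3 lines (TEL-PDGFRα WT, TEL-PDGFRβ WT, c-KIT D816V, V560G/D816V, D814Y) were seeded at 3×10^3 cells/well and exposed to 12-point, 3-fold dilutions (final 0.00005-10 μM) for 72 h at 37 °C. CellTiter-Glo signal was read after about 10 min mixing; GI50 (nM) was calculated relative to vehicle.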
For orientation: Cellular ATP, detected with luciferase, serves as a proxy for viable cell number.

For the next experiment, the target named is T1, human PDGFR-β(wt) (Homo sapiens, UniProt P09619).
T1 construct: purchased Signalchem P13-11G
T1 sequence (P09619 33-1106): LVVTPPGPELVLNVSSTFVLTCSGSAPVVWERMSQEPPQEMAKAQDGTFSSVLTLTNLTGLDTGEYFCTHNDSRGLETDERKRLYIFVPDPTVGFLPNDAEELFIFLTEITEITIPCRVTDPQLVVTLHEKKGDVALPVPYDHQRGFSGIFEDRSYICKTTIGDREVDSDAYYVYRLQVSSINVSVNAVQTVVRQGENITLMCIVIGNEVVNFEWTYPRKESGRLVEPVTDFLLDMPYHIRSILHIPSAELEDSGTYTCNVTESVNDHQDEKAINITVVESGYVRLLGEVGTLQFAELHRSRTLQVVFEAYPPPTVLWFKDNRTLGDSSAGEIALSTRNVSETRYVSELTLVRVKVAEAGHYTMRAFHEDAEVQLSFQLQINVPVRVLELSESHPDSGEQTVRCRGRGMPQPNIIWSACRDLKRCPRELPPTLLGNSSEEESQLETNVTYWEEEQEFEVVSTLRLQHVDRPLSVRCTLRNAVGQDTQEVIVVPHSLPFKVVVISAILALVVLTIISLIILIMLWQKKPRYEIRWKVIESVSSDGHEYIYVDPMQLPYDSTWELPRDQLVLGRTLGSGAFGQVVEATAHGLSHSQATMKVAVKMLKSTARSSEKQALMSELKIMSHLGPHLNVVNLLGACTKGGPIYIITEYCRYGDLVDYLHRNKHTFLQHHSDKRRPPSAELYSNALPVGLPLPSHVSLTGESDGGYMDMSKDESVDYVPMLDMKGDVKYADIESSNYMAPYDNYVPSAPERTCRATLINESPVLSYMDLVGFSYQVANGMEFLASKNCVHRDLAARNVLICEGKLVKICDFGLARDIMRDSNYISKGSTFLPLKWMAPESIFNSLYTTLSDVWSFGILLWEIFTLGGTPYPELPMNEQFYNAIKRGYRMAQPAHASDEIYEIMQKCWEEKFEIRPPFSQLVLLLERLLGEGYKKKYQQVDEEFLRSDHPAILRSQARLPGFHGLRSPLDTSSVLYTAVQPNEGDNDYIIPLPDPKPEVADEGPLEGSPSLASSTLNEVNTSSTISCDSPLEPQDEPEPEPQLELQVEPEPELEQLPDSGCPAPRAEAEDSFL
The experiment can be described thus: Enzyme inhibitory activity, ADP-Glo kinase assay, PDGFR-β(wt). The conditions noted are these: read-out: PDGFR-β (IC50 class). Format: biochemical. As for the experimental part: In order to evaluate the inhibitory activity of the compounds synthesized according to the above examples on PDGFR-α(wt), PDGFR-β(wt), c-KIT(wt), and c-KIT(D816V) kinases, the following method was performed. The compounds of examples were reacted with purified human PDGFR-α(wt) (Signalchem #P12-18G) enzyme, human PDGFR-β(wt) (Signalchem #P13-11G) enzyme, human c-KIT(wt) (Signalchem #K06-11BG) enzyme, human c-KIT(D816V) (Signalchem #C06-12LG) enzyme, and the enzyme inhibitory abilities were evaluated by the following method.
The reaction buffer was used as a composition of 40 mM Tris-HCl pH7.4, 20 mM MgCl2, 0.5 mg/ml BSA, 50 μM DTT, and the reactions of all the tests were carried out on the reaction buffer. The compound was diluted in 12 steps using a serial dilution method from a 10 mM DMSO stock, and the enzyme activity was measured at a final compound concentration of 10˜0.00005645 μM. During the test, the enzyme activity was confirmed using in vitro ADP-Glo™ kinase assay (Promega) after reacting with the proper concentration of human PDGFR-α(wt) enzyme, human PDGFR-β(wt), human c-KIT(wt) enzyme, and human c-KIT(D816V) enzyme with purified ATP and enzyme substrate at 25° C. for 1˜2 hours. At a ratio of 2:2:1, an enzyme-active reaction solution, an ADP-Glo reaction solution, and an enzyme-active detection solution were reacted to measure the inhibition of the enzyme's activity with luminoscence. Based on the […] of the enzyme activity of the solvent control that was not treated with the compound, the degree of enzyme activity inhibition was calculated according to the treatment concentration of each compound, and the concentration of each compound that inhibits 50% of enzyme activity was determined as IC50 (nM) value and the value was obtained by using GraphPad Prism 8.3.0 (GraphPad software Inc., San Diego) software. (A: IC50≤50 nM; B: 50 nM<IC50≤100 nM; C: 100 nM<IC50≤500 nM; D: IC50>500 nM).
In general terms: In ADP-Glo the light output rises with the ADP produced.

The test system of another experiment is Ba/F3-TEL-PDGFβ(WT). The experiment can be described thus: Proliferation inhibitory activity on Ba/F3 cell (CellTiter-Glo, 72 hours), PDGFR-β. The class given is cell-based. The conditions noted are these: Mus musculus, BaF3, read-out: Ba/F3 (nM) Tel-PDGFRβ (GI50 class). Here is the method: Ba/F3-TEL-PDGFRα(WT), Ba/F3-TEL-PDGFβ(WT), Ba/F3-c-KIT(D816V) (Kyinno, #KC-0138), c-KIT V560G/D816V, c-KIT D814Y were seeded at 3×10^3/100 μl/well in a clear bottom white 96-well plate. A culture solution containing compounds of 12 concentrations (0.00001-2 mM) serially diluted in 3 folds and the DMSO control group was added at 0.5 μl/well each to a final concentration of 0.00005-10 μM, and then incubated in a CO2 incubator at 37° C. for 72 hours. After 72 hours, the plate treated with the compound was taken out, CellTiter-Glo® Assay (Promega) solution was treated with 100 μl/well, followed by mixing well. After mixing well for about 10 minutes at room temperature, […] was measured using a microplate reader. The data were presented as percentages in proportion to treated cells based on the vehicle, GI50 (nM) values were calculated using GraphPad Prism 8.3.0 (GraphPad software Inc., San Diego).
The inhibitory activities of Ba/F3 expressing PDGFR-α, PDGFR-β, c-KIT(D816V), c-KIT V560G/D816V, and c-KIT D814Y measured as described above were measured and shown in Table 7 below (A: GI50≤200 nM; B: 200 nM<GI50≤500 nM; C: GI50>500 nM).

Another experiment concerns Ba/F3-c-KIT(D816V). Put plainly: Proliferation inhibitory activity on Ba/F3 cell (CellTiter-Glo, 72 hours), c-KIT(D816V). The class given is cell-based. The settings on record: Mus musculus, BaF3, read-out: Ba/F3 (nM) c-KIT (D816V) (GI50 class). The procedure, abridged: as §1

By pIC50 is commonly meant −log10 of the IC50, conventionally taken in molar units. With `CCN1CCC(COc2cc3ncnc(-c4ccc(NC(=O)Cc5ccc6c(c5)OCO6)cc4)c3cc2OC)CC1` [Example 99, 2-(benzo[d][1,3]dioxol-5-yl)-N-(4-(7-((1-ethylpiperidin-4-yl)methoxy)-6-methoxyquinazolin-4-yl)phenyl)acetamide], the GI50 in the experiment on c-KIT V560G/D816V and with Ba/F3-TEL-PDGFβ(WT) was not above 200 nM each time. Besides, the negative logarithm of the IC50 (pIC50) at human PDGFR-β(wt) was not below 7.30.

Consider `COc1cc2ncnc(-c3ccc(NC(=O)Cc4ccc(C(F)(F)F)cc4)cc3)c2cc1OCCCN1C[C@@H]2C[C@H]1CN2C` [Example 158, N-(4-(7-methoxy-6-(3-((1S,4S)-5-methyl-2,5-diazabicyclo[2.2.1]heptane-2-yl)propoxy)quinazolin-4-yl)phenyl)-2-(4-(trifluoromethyl)phenyl)acetamide], for which the GI50 with c-KIT V560G/D816V is 200 to 500 nM; in the experiment with Ba/F3-c-KIT(D816V), not above 200 nM; with Ba/F3-TEL-PDGFβ(WT), not above 200 nM. Moreover, on human PDGFR-β(wt), the negative logarithm of the IC50 (pIC50) is not below 7.30.

Regarding `CCN1CCCC(COc2cc3ncnc(-c4ccc(NC(=O)Cc5ccc(C(F)(F)F)nc5)cc4)c3cc2OC)C1` (stereo not drawn) [Example 110, N-(4-(7-((1-ethylpiperidin-3-yl)methoxy)-6-methoxyquinazolin-4-yl)phenyl)-2-(6-(trifluoromethyl)pyridin-3-yl)acetamide], the GI50 with c-KIT V560G/D816V and with Ba/F3-TEL-PDGFβ(WT) was not above 200 nM in each case. For the same molecule, on human PDGFR-β(wt), the negative-log IC50 (pIC50) was not below 7.30.

Take `COc1cc2c(-c3ccc(NC(=O)Cc4ccc(C(F)(F)F)cc4)cc3)ncnc2cc1OCCCN1CCN(C2CC2)CC1` [Example 142, N-(4-(7-(3-(4-cyclopropylpiperazin-1-yl)propoxy)-6-methoxyquinazolin-4-yl)phenyl)-2-(4-(trifluoromethyl)phenyl)acetamide]: the GI50 in the experiment with c-KIT V560G/D816V, in the experiment with Ba/F3-c-KIT(D816V) and with Ba/F3-TEL-PDGFβ(WT) was not above 200 nM throughout. Further, the negative logarithm of the IC50 (pIC50) on human PDGFR-β(wt) is not below 7.30.

`COc1cc2c(-c3ccc(NC(=O)Cc4ccc5c(c4)OCO5)cc3)ncnc2cc1OCC1CCNCC1` [Example 97, 2-(benzo[d][1,3]dioxol-5-yl)-N-(4-(6-methoxy-7-(piperidin-4-ylmethoxy)quinazolin-4-yl)phenyl)acetamide]: the GI50 in the experiment on c-KIT V560G/D816V is more than 500 nM; in the experiment with Ba/F3-TEL-PDGFβ(WT), not above 200 nM. In addition, the negative-log IC50 (pIC50) at human PDGFR-β(wt) was not below 7.30.

In the case of `COCCN1CCC(COc2cc3ncnc(-c4ccc(NC(=O)Cc5ccc6c(c5)OCO6)cc4)c3cc2OC)CC1` [Example 98, 2-(benzo[d][1,3]dioxol-5-yl)-N-(4-(6-methoxy-7-((1-(2-methoxyethyl)piperidin-4-yl)methoxy)quinazolin-4-yl)phenyl)acetamide], the GI50 in the experiment with c-KIT V560G/D816V and in the experiment on Ba/F3-TEL-PDGFβ(WT) was not above 200 nM in each case. In addition, the negative logarithm of the IC50 (pIC50) at human PDGFR-β(wt) is not below 7.30.

In the case of `COc1cc2ncnc(-c3ccc(NC(=O)Cc4ccc(C(F)(F)F)cc4)cc3)c2cc1OCCCN1CCN2CCCC2C1` (stereo not drawn) [Example 161, N-(4-(6-(3-(hexahydropyrrolo[1,2-a]pyrazin-2(1H)-yl)propoxy)-7-methoxyquinazolin-4-yl)phenyl)-2-(4-(trifluoromethyl)phenyl)acetamide], the GI50 in the experiment with c-KIT V560G/D816V, in the experiment on Ba/F3-c-KIT(D816V) and in the experiment with Ba/F3-TEL-PDGFβ(WT) was not above 200 nM throughout. Further, the pIC50 on human PDGFR-β(wt) is not below 7.30.

For `COc1cc2c(-c3ccc(C(=O)NCc4ccc5c(c4)OCO5)cc3)ncnc2cc1OCCCN1CCN(C)CC1` [Example 166, N-(benzo[d][1,3]dioxol-5-ylmethyl)-4-(6-methoxy-7-(3-(4-methylpiperazin-1-yl)propoxy)quinazolin-4-yl)benzamide], on human PDGFR-β(wt), the negative-log IC50 (pIC50) was not below 7.30. Besides, the GI50 with Ba/F3-TEL-PDGFβ(WT) was not above 200 nM.

For the molecule `COc1cc2c(-c3ccc(NC(=O)Cc4ccc(C(F)(F)F)nc4)cc3)ncnc2cc1OCC1CCN(C(C)C)CC1` [Example 121, N-(4-(7-((1-isopropylpiperidin-4-yl)methoxy)-6-methoxyquinazolin-4-yl)phenyl)-2-(6-(trifluoromethyl)pyridin-3-yl)acetamide], the GI50 with c-KIT V560G/D816V and in the experiment on Ba/F3-TEL-PDGFβ(WT) was not above 200 nM throughout. Besides, the pIC50 on human PDGFR-β(wt) is not below 7.30.

For the molecule `COc1cc2c(-c3ccc(NC(=O)Cc4ccc5c(c4)OCO5)c(F)c3)ncnc2cc1OCCCN1CCN(C)CC1` [Example 163, 2-(benzo[d][1,3]dioxol-5-yl)-N-(2-fluoro-4-(6-methoxy-7-(3-(4-methylpiperazin-1-yl)propoxy)quinazolin-4-yl)phenyl)acetamide], on human PDGFR-β(wt), the pIC50 is not below 7.30. In addition, the GI50 in the experiment on Ba/F3-TEL-PDGFβ(WT) is not above 200 nM.

As for `COc1cc2c(-c3ccc(NC(=O)Cc4ccc5c(c4)OCO5)c(C)c3)ncnc2cc1OCCCN1CCN(C)CC1` [Example 164], the pIC50 at human PDGFR-β(wt) was not below 7.30. The GI50 with Ba/F3-TEL-PDGFβ(WT) was not above 200 nM.

On to `COc1ccc(CC(=O)Nc2ccc(-c3ncnc4cc(OCC5CCN(C)CC5)c(OC)cc34)cc2)cn1` [Example 100, N-(4-(6-methoxy-7-((1-methylpiperidin-4-yl)methoxy)quinazolin-4-yl)phenyl)-2-(6-methoxypyridin-3-yl)acetamide], for which the GI50 with c-KIT V560G/D816V and in the experiment on Ba/F3-TEL-PDGFβ(WT) was not above 200 nM in each case. Also, at human PDGFR-β(wt), the pIC50 is not below 7.30.

For the molecule `COc1cc2c(-c3ccc(NC(=O)Cc4ccc(C(F)(F)F)cc4)c(F)c3)ncnc2cc1OCCCN1CCN(C)CC1` [Example 50, N-(2-fluoro-4-(6-methoxy-7-(3-(4-methylpiperazin-1-yl)propoxy)quinazolin-4-yl)phenyl)-2-(4-(trifluoromethyl)phenyl)acetamide], at human PDGFR-β(wt), the pIC50 is not below 7.30. In addition, in the experiment on Ba/F3-TEL-PDGFβ(WT), the GI50 was not above 200 nM.

For the molecule `CCN1CCCC(COc2cc3ncnc(-c4ccc(NC(=O)Cc5ccc(OC)nc5)cc4)c3cc2OC)C1` (stereo not drawn) [Example 109, N-(4-(7-((1-ethylpiperidin-3-yl)methoxy)-6-methoxyquinazolin-4-yl)phenyl)-2-(6-methoxypyridin-3-yl)acetamide], the GI50 in the experiment on c-KIT V560G/D816V and with Ba/F3-TEL-PDGFβ(WT) was not above 200 nM in each case. For the same molecule, the pIC50 at human PDGFR-β(wt) is not below 7.30.

Turning to `COc1ccc(CC(=O)Nc2ccc(-c3ncnc4cc(OCC5CCN(C(C)C)CC5)c(OC)cc34)cc2)cn1` [Example 116, N-(4-(7-((1-isopropylpiperidin-4-yl)methoxy)-6-methoxyquinazolin-4-yl)phenyl)-2-(6-methoxypyridin-3-yl)acetamide], the GI50 in the experiment on c-KIT V560G/D816V and in the experiment on Ba/F3-TEL-PDGFβ(WT) was not above 200 nM in each case. Further, the negative logarithm of the IC50 (pIC50) at human PDGFR-β(wt) was not below 7.30.

On to `COCCN1CCC(COc2cc3ncnc(-c4ccc(NC(=O)Cc5ccc(Cl)nc5)cc4)c3cc2OC)CC1` [Example 113, 2-(6-chloropyridin-3-yl)-N-(4-(6-methoxy-7-((1-(2-methoxyethyl)piperidin-4-yl)methoxy)quinazolin-4-yl)phenyl)acetamide], for which the GI50 with c-KIT V560G/D816V and in the experiment with Ba/F3-TEL-PDGFβ(WT) was not above 200 nM in each case. For the same molecule, on human PDGFR-β(wt), the negative-log IC50 (pIC50) was not below 7.30.

For `COc1cc2c(-c3ccc(NC(=O)C(C)c4ccco4)cc3)ncnc2cc1OCCCN1CCN(C)CC1` (stereo not drawn) [Example 48, 2-(furan-2-yl)-N-(4-(6-methoxy-7-(3-(4-methylpiperazin-1-yl)propoxy)quinazolin-4-yl)phenyl)propanamide], the pIC50 on human PDGFR-β(wt) was not below 7.30. Besides, in the experiment with Ba/F3-TEL-PDGFβ(WT), the GI50 was not above 200 nM.

Turning to `COc1cc2c(-c3ccc(NC(=O)Cc4cscn4)cc3)ncnc2cc1OCCCN1CCN(C)CC1` [Example 51, N-(4-(6-methoxy-7-(3-(4-methylpiperazin-1-yl)propoxy)quinazolin-4-yl)phenyl)-2-(thiazole-4-yl)acetamide], the negative-log IC50 (pIC50) at human PDGFR-β(wt) is not below 7.30. Further, the GI50 with Ba/F3-TEL-PDGFβ(WT) was not above 200 nM.
